Data taken from ChEMBL document CHEMBL1201862, “PubChem BioAssay data set” (2004).
The source made the active and inactive calls.

Legend:
Assay type in all cases: functional
[1] = target: Dual specificity protein phosphatase 3 (Homo sapiens, UniProt P51452); assay: VHR phosphatase inhibition, dose response, selectivity assay for STEP inhibitor project, biochemical (AID 602374); details: read-out: IC50_Mean
[2] = THP-1 cell cytotoxicity, dose response, cytotoxicity control for Vif-APOBEC3G degradation inhibitor project, THP-1 cells (AID 1117359); details: Human immunodeficiency virus 1, THP-1
[3] = target: T1, Low molecular weight phosphotyrosine protein phosphatase (Homo sapiens, UniProt P24666); details: read-out: IC50_Mean
T1 sequence (P24666 whole entry): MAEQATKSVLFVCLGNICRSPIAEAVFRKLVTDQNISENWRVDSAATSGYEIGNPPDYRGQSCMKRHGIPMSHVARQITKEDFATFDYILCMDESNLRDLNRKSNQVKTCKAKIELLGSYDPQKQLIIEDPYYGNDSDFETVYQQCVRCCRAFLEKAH

[4] = target: T2, Tyrosine-protein phosphatase non-receptor type 5 (Homo sapiens, UniProt P54829); assay: STEP phosphatase inhibitors, confirmation, biochemical, fluorescence intensity, uHTS hits (AID 602372); details: read-out: IC50_Mean
T2 sequence (P54829 whole entry): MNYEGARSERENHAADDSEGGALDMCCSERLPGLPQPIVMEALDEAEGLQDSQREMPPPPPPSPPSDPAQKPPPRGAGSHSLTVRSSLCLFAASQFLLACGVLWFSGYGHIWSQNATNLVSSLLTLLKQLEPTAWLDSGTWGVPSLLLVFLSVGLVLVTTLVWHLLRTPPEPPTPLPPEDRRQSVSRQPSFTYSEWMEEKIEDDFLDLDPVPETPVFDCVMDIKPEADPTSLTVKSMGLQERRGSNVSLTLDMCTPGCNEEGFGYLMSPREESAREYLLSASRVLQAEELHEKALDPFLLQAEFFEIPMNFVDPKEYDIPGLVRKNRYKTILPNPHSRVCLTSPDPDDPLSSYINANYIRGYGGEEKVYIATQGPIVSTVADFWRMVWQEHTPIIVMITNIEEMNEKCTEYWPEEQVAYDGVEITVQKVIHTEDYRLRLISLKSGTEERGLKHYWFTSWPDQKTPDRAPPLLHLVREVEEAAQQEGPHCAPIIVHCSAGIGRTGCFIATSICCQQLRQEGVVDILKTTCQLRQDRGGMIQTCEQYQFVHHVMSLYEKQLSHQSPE

[5] = target: T3, Tyrosine-protein phosphatase non-receptor type 11 (Homo sapiens, UniProt Q06124); assay: SHP2 phosphatase inhibition, dose response, selectivity assay for STEP inhibitor project, biochemical (AID 602367); details: read-out: IC50_Mean
T3 sequence (Q06124 whole entry): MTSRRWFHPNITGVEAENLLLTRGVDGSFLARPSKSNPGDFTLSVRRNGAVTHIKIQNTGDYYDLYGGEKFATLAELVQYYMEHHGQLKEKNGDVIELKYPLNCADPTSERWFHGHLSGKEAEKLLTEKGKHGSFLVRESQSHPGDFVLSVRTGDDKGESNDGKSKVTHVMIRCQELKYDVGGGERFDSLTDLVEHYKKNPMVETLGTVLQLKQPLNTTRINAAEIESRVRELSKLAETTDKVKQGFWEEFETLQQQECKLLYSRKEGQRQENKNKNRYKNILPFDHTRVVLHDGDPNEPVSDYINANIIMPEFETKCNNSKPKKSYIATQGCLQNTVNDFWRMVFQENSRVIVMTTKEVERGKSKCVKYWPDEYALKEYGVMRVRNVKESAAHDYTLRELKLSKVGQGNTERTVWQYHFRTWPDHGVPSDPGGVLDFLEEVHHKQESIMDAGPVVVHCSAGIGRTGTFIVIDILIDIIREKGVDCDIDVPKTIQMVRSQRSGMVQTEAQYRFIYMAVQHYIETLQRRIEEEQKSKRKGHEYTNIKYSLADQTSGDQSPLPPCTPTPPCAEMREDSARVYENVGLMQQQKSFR

[6] = target: T1, Low molecular weight phosphotyrosine protein phosphatase; details: read-out: IC50_Mean; remark: listed apart in the source
[7] = miR-122 activators in hepatoma reporter cells, dose response, cell-based, Huh7 psiCHECK-miR122, Renilla luciferase, cherry-picked (AID 651956);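 also: huh7 hepatoma cells stably carrying a psiCHECK-2 miR-122 sensor plasmid; renilla luciferase signal reporting endogenous miR-122 activity after 48 h compound exposure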
[8] = target: T4, Rac GTPase-activating protein 1 (Homo sapiens, UniProt Q9H0H5); assay: MgcRacGAP GTPase-activating activity inhibitors, confirmation, biochemical, ADP Hunter fluorescence, primary and confirmatory (AID 624330)
T4 sequence (Q9H0H5 whole entry): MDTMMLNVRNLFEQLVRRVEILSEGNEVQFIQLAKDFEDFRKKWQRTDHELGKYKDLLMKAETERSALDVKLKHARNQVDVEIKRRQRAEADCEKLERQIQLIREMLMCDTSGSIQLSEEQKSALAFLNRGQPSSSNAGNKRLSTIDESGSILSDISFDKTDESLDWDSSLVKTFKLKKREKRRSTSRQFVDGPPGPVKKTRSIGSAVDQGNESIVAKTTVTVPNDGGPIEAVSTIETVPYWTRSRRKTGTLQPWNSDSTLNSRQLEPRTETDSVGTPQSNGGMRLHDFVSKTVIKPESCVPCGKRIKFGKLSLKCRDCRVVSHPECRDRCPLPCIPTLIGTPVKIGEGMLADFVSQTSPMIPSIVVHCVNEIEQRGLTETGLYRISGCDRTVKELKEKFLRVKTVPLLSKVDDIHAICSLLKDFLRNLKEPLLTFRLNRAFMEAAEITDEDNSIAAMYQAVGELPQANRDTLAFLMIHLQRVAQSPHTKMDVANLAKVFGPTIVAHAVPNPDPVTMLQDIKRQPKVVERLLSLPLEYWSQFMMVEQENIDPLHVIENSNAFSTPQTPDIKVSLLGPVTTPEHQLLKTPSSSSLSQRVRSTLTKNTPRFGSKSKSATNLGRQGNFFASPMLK

[9] = HeLa cell cytotoxicity, dose response, cytotoxicity control for MgcRacGAP inhibitor project (AID 624300)
[10] = target: Induced myeloid leukemia cell differentiation protein Mcl-1 (Homo sapiens, UniProt Q07820)
Induced myeloid leukemia cell differentiation protein Mcl-1, sequence (Q07820 whole entry, the tested form may be a part): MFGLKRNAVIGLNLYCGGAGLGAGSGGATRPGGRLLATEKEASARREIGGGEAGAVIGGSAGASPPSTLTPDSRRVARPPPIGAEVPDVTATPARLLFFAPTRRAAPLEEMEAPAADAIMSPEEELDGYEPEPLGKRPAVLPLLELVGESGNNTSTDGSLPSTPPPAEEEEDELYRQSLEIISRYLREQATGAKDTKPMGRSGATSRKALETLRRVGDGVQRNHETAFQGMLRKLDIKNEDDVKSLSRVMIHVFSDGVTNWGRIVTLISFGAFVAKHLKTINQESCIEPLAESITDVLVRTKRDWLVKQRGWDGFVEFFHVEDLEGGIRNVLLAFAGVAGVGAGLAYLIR

[11] = target: T5, Carboxy-terminal domain RNA polymerase II polypeptide A small phosphatase 1 (Homo sapiens, UniProt Q9GZU7); assay: inhibitors of CTDSP1, concentration-response testing, biochemical assay, absorbance-based, actives from ultra-high-throughput screening (AID 540297)
T5 sequence (Q9GZU7 whole entry): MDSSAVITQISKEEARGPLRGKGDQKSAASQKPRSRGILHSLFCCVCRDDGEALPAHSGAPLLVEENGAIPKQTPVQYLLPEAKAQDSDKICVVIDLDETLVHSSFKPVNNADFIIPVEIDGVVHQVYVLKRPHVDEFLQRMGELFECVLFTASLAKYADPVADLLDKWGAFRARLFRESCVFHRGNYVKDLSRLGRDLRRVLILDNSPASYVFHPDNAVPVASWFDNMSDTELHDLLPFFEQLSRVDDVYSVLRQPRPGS

Dual specificity protein phosphatase 3, sequence (P51452 whole entry): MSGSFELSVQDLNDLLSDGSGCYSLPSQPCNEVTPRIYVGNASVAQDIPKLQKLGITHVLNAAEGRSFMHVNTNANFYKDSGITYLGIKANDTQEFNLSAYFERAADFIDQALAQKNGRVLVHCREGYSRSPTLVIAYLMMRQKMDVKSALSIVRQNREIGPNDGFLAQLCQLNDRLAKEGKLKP

NN=C1C(Cl)=C(Cl)C(Cl)=C1Cl
IC50 [1]: 1.99 µM (active)
CC50 [2]: > 40 µM (active)
IC50 [3]: 7.19 µM (active)
IC50 [4]: > 80 µM (inactive)
IC50 [5]: 1.45 µM (active)
IC50 [6]: 38.7 µM (inactive)

C[C@@H]1CN([C@H](C)CO)S(=O)(=O)c2ccc(C#CC3(O)CCCC3)cc2O[C@@H]1CN(C)C(=O)c1cccnc1
AC50 [7]: 9.98 µM (active)

COCC(=O)N(C)C[C@H]1Oc2cc(C#Cc3cccnc3)ccc2S(=O)(=O)N([C@@H](C)CO)C[C@H]1C
AC50 [7]: 1.09 µM (active)

Clc1cccc(N/N=C/c2ccc(N3CCOCC3)s2)c1
IC50 [8]: 71.3 µM (active)
CC50 [9]: 83.7 µM (active)
IC50 [10]: 13.4 µM (active)

O=C(N/N=C/c1ccc(OC(=O)c2ccc3c(c2)OCO3)cc1)c1cncc(Br)c1
IC50 [3]: 6.29 µM (active)
IC50 [11]: 1.8 µM (active)
IC50 [6]: 1.82 µM (active)
